From patent publication US20190225650A1, “PEPTIDOMIMETIC MACROCYCLES AND USE THEREOF IN REGULATING HIF1ALPHA” (AILERON THERAPEUTICS, INC., priority 2013, published 2019)
Bridge positions count the residues as written; N and C are the ends. Square brackets hold non-standard residues; d marks the D form. Peptide text beside a SMILES is read from it. R8 = C=CCCCCCC[C@@](C)(N)C(=O)O; R5 = C=CCCC[C@@](C)(N)C(=O)O; S5 = C=CCCC[C@](C)(N)C(=O)O; Nle = CCCC[C@H](N)C(=O)O; Dap = NC[C@H](N)C(=O)O

How the values were obtained:
[1] = target: T1, flag-tagged HIF1α (AA 786-826) / His6-tagged p300 (AA 323-423) complex (Homo sapiens, UniProt Q09472); test: HIF1α p300 displacement assay (TR FRET, +CHAPS); format: binding; details: read-out: IC50 (nM) (HIF1α_p300 Displacement + CHAPS)
T1 construct: His6-tagged p300 (AA 323-423); made in house; host or cells: E. coli (pETDuet vector)
T1 sequence (Q09472 323-423, one chain of several): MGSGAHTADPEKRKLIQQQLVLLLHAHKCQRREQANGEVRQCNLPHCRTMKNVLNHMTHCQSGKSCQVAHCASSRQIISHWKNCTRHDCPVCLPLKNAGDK
Experimental: The ability of peptides to displace HIF1α c-terminal trans-activation domain from p300-CH was measured by a TR FRET assay. A complex of flag-tagged HIF1α (AA 786-826) and His6-tagged p300 (AA 323-423) was co-expressed using pETDuet vector (EMDMillipore, Bellrica Mass.) and purified from E. coli in the presence of 0.1 mM ZnSO4. The complex was diluted to 300 nM final in complete assay media and competitor peptides were added. The complete assay media contained 150 mM NaCl (Sigma +S5150 or equivalent), 20 mM HEPES pH 7.4 (Boston Bioproducts, Ashland, Mass.; #BB-2076), 7.5 mM CHAPS (Thermo #28300 or equivalent), and 1 mM DTT. Protein and peptide were incubated at room temperature for 1 hour before the addition of anti-Flag-K and anti-6×HIS-D2 (CisBio, Bedford Mass.) HTRF reconstitution buffer (50 mM Phosphate pH 7, 0.8 Potassium Flouride, BSA 0.2%)^1 to a final concentration of 0.5 μM and 4 nM respectively. The reaction continued for an additional two hours at room temperature. The reaction was read on a TECAN F500 plate reader with settings recommended by CisBio. The ratio of donor to acceptor fluorescence was calculated. The resulting data was analyzed with Graphpad Prism 5.0. IC50 values were calculated for both proteins using the One Site Fit-LogIC50 equation and presented in the column “IC50 (nM) (HIF1α_p300 Displacement+CHAPS)” of Table 6. ^1 Cisbio USA, Bedford, Mass.; 61HISDLB (lot 007A), 61FG2KLB (024A), HTRF Buffer (62RB3RDF)

[2] = system: HRE-bla ME-180 cells; test: Reporter gene assay (HRE-bla ME-180 HIF reporter, GeneBLAzer); format: cell-based, human; details: for EC50: 24 hour normoxia
Summary of the method: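 A FRET β-lactamase readout of HIF transcription was used. After compound treatment in 0.3% DMSO/media under normoxic conditions, 20 μl of 6× LiveBLAzer-FRET B/G (CCF4-AM) substrate was added. Plates sat 3 hr at room temperature in the dark and were read at 409 Ex/460Em and 409Ex/530Em on a Synergy 2. Inhibition was compared against DMSO vehicle controls, with chetomin as positive control.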

| Compound | IC50 [1] [nM] | 18 h Avg % max inhibition at top conc (HIF Rptr-24 hrs normoxia) (μM) [2] | EC50 [2] [µM] |
| --- | --- | --- | --- |
| CCCC[C@H](NC(=O)[C@H](CCC(=O)O)NC(=O)[C@@H](NC(=O)[C@@H](NC(=O)[C@H](CC(N)=O)NC(=O)[C@]1(C)CCCC=CCCC[C@](C)(NC(=O)[C@H](C)NC(=O)[C@H](CC(=O)O)NC(=O)[C@@H](NC(=O)[C@H](Cc2ccccc2)NC(C)=O)[C@@H](C)CC)C(=O)N[C@@H](C(C)C)C(=O)N[C@@H](CC(C)C)C(=O)N[C@@H](CCCC)C(=O)N1)C(C)C)[C@@H](C)CC)C(=O)N[C@@H](C)C(=O)N[C@@H](CC(C)C)C(N)=O [SP-150] (Ac-FIDA[S5]VL[Nle][S5]NVIE[Nle]AL-NH2; staple 5-9) | 200 to 400 | – | – |
| CC[C@H](C)[C@H](NC(=O)[C@H](Cc1ccccc1)NC(C)=O)C(=O)N[C@@H](CC(=O)O)C(=O)N[C@@H](CCC(=O)O)C(=O)N[C@@H](CCC(=O)O)C(=O)N[C@H](C(=O)N[C@@H](CC(C)C)C(=O)N[C@@H](C)C(=O)N[C@@]1(C)CCCC=CCCC[C@@](C)(C(=O)N[C@@H](C)C(=O)N[C@@H](C)C(=O)N[C@@H](CC(C)C)C(=O)N[C@@H](CC(=O)O)C(=O)N[C@@H](CCCNC(=N)N)C(N)=O)NC(=O)[C@H]([C@@H](C)CC)NC(=O)[C@H](C(C)C)NC(=O)[C@H](CC(C)C)NC1=O)C(C)C [SP-28] (Ac-FIDEEVLA[S5]LVI[S5]AALDR-NH2; staple 9-13) | – | ++++ (≥50: ++++) | 15 to 30 |
| CCCC[C@H](NC(=O)[C@H](CC(C)C)NC(=O)[C@@H](NC(=O)[C@H](CCC(=O)O)NC(=O)[C@H](CCC(=O)O)NC(=O)[C@H](CC(=O)O)NC(=O)[C@@H](NC(=O)[C@H](Cc1ccccc1)NC(C)=O)[C@@H](C)CC)C(C)C)C(=O)N[C@]1(C)CCCC=CCCC[C@](C)(C(=O)N[C@@H](CCCC)C(=O)N[C@@H](C)C(=O)N[C@@H](CC(C)C)C(=O)N[C@@H](CC(=O)O)C(=O)N[C@@H](CCCNC(=N)N)C(=O)N[C@H](C(N)=O)[C@@H](C)CC)NC(=O)[C@H]([C@@H](C)CC)NC(=O)[C@H](C(C)C)NC(=O)[C@H](CC(C)C)NC1=O [SP-296] (Ac-FIDEEVL[Nle][R5]LVI[R5][Nle]ALDRI-NH2; staple 9-13) | – | ++++ (≥50: ++++) | ≤ 5 |
| CCCC[C@H](NC(=O)[C@H](CC(C)C)NC(=O)[C@@H](NC(=O)[C@H](CCC(=O)O)NC(=O)[C@H](CCC(=O)O)NC(=O)[C@H](CC(=O)O)NC(=O)[C@@H](NC(=O)[C@H](Cc1ccccc1)NC(C)=O)[C@@H](C)CC)C(C)C)C(=O)N[C@@]1(C)CCCC=CCCC[C@@](C)(C(=O)N[C@@H](CN)C(=O)N[C@@H](C)C(=O)N[C@@H](CC(C)C)C(=O)N[C@@H](CC(=O)O)C(=O)N[C@@H](CCCNC(=N)N)C(=O)N[C@H](C(N)=O)[C@@H](C)CC)NC(=O)[C@H]([C@@H](C)CC)NC(=O)[C@H](C(C)C)NC(=O)[C@H](CC(C)C)NC1=O [SP-66] (Ac-FIDEEVL[Nle][S5]LVI[S5][Dap]ALDRI-NH2; staple 9-13) | – | ++ (≤10 but <25: ++) | > 30 |
| CCCC[C@H](NC(=O)[C@H](CC(C)C)NC(=O)[C@@H](NC(=O)[C@H](CCC(=O)O)NC(=O)[C@H](CCC(=O)O)NC(=O)[C@H](C)NC(=O)[C@@H](NC(=O)[C@H](Cc1ccccc1)NC(C)=O)[C@@H](C)CC)C(C)C)C(=O)N[C@@]1(C)CCCC=CCCC[C@@](C)(C(=O)N[C@@H](CCCC)C(=O)N[C@@H](C)C(=O)N[C@@H](CC(C)C)C(=O)N[C@@H](CC(=O)O)C(=O)N[C@@H](CCCNC(=N)N)C(=O)N[C@H](C(N)=O)[C@@H](C)CC)NC(=O)[C@H]([C@@H](C)CC)NC(=O)[C@H](C(C)C)NC(=O)[C@H](CC(C)C)NC1=O [SP-11] (Ac-FIAEEVL[Nle][S5]LVI[S5][Nle]ALDRI-NH2; staple 9-13) | – | ++++ (≥50: ++++) | 5 to 15 |
| CCCC[C@H](NC(=O)[C@]1(C)CCCC=CCCC[C@](C)(NC(=O)[C@H](CC(=O)O)NC(=O)[C@H](CC(C)C)NC(=O)[C@@H](NC(=O)[C@H](CCC(=O)O)NC(=O)[C@H](CCC(=O)O)NC(=O)[C@H](CC(=O)O)NC(=O)[C@@H](NC(=O)[C@H](Cc2ccccc2)NC(C)=O)[C@@H](C)CC)C(C)C)C(=O)N[C@@H](CC(C)C)C(=O)N[C@@H](C(C)C)C(=O)N[C@@H]([C@@H](C)CC)C(=O)N1)C(=O)N[C@@H](C)C(=O)N[C@@H](CC(C)C)C(=O)N[C@@H](CC(=O)O)C(=O)N[C@@H](CCCNC(=N)N)C(=O)N[C@H](C(N)=O)[C@@H](C)CC [SP-34] (Ac-FIDEEVLD[S5]LVI[S5][Nle]ALDRI-NH2; staple 9-13) | – | ++++ (≥50: ++++) | 5 to 15 |
| CCCC[C@H](NC(=O)[C@H](CC(C)C)NC(=O)[C@@H](NC(=O)[C@H](CCC(=O)O)NC(=O)[C@H](CCC(=O)O)NC(=O)[C@H](CC(=O)O)NC(=O)[C@@H](NC(=O)[C@H](Cc1ccccc1)NC(C)=O)[C@@H](C)CC)C(C)C)C(=O)N[C@@]1(C)CCCC=CCCC[C@@](C)(C(=O)N[C@@H](CCCC)C(=O)N[C@@H](C)C(=O)N[C@@H](CC(C)C)C(=O)N[C@@H](CC(=O)O)C(=O)N[C@@H](CCCNC(=N)N)C(N)=O)NC(=O)[C@H]([C@@H](C)CC)NC(=O)[C@H](C(C)C)NC(=O)[C@H](CC(C)C)NC1=O [SP-27] (Ac-FIDEEVL[Nle][S5]LVI[S5][Nle]ALDR-NH2; staple 9-13) | – | ++++ (≥50: ++++) | 5 to 15 |
| CC[C@H](C)[C@H](NC(=O)[C@H](Cc1ccccc1)NC(C)=O)C(=O)N[C@@H](CC(=O)O)C(=O)N[C@@H](CCC(=O)O)C(=O)N[C@]1(C)CCCCCCC=CCCC[C@@](C)(C(=O)N[C@@H](CCC(=O)O)C(=O)N[C@@H](CCSC)C(=O)NCC(=O)N[C@@H](CC(C)C)C(=O)N[C@@H](CC(=O)O)C(=O)N[C@@H](CCCNC(=N)N)C(=O)N[C@H](C(=O)N[C@@H](CCCCN)C(=O)N[C@@H](CCC(=O)O)C(=O)N[C@@H](CC(C)C)C(=O)N2CCC[C@H]2C(=O)N[C@@H](CCC(=O)O)C(=O)N[C@@H](CC(C)C)C(=O)N[C@@H](Cc2c[nH]c3ccccc23)C(=O)N[C@@H](CC(C)C)C(N)=O)[C@@H](C)CC)NC(=O)[C@H](C(C)C)NC(=O)[C@H](CC(C)C)NC(=O)[C@H](CO)NC(=O)[C@H](CCSC)NC(=O)[C@H](CC(C)C)NC(=O)[C@H](C(C)C)NC1=O [SP-82] (Ac-FIDE[R8]VLMSLV[S5]EMGLDRIKELPELWL-NH2; staple 5-12) | – | + (<10: +) | > 30 |
| CCCC[C@H](NC(=O)[C@H](CC(C)C)NC(=O)[C@@H](NC(=O)[C@H](CCC(=O)O)NC(=O)[C@H](CCC(=O)O)NC(=O)[C@H](CC(=O)O)NC(=O)[C@@H](NC(=O)[C@H](Cc1ccccc1)NC(C)=O)[C@@H](C)CC)C(C)C)C(=O)N[C@@]1(C)CCCC=CCCC[C@@](C)(C(=O)N[C@@H](CCCC)C(=O)N[C@@H](C)C(=O)N[C@@H](CC(C)C)C(=O)N[C@@H](CC(=O)O)C(=O)N[C@@H](CCCNC(=N)N)C(=O)N[C@H](C(N)=O)[C@@H](C)CC)NC(=O)[C@H]([C@@H](C)CC)NC(=O)[C@H](C(C)C)NC(=O)[C@H](CC(=O)O)NC1=O [SP-35] (Ac-FIDEEVL[Nle][S5]DVI[S5][Nle]ALDRI-NH2; staple 9-13) | – | + (<10: +) | > 30 |
| CCCC[C@H](NC(=O)[C@H](CC(C)C)NC(=O)[C@@H](NC(=O)[C@H](CCC(=O)O)NC(=O)[C@H](CCC(=O)O)NC(=O)[C@H](CC(=O)O)NC(=O)[C@@H](NC(=O)[C@H](Cc1ccccc1)NC(C)=O)[C@@H](C)CC)C(C)C)C(=O)N[C@@]1(C)CCCC=CCCC[C@@](C)(C(=O)N[C@@H](CCCC)C(=O)N[C@@H](C)C(=O)N[C@@H](CC(C)C)C(=O)N[C@@H](CC(=O)O)C(=O)N[C@@H](CCCNC(=N)N)C(=O)N[C@@H](CO)C(N)=O)NC(=O)[C@H]([C@@H](C)CC)NC(=O)[C@H](C(C)C)NC(=O)[C@H](CC(C)C)NC1=O [SP-59] (Ac-FIDEEVL[Nle][S5]LVI[S5][Nle]ALDRS-NH2; staple 9-13) | – | +++ (≤25 but <50: +++) | 15 to 30 |
| CCCC[C@H](NC(=O)[C@H](CC(C)C)NC(=O)[C@@H](NC(=O)[C@H](CCC(=O)O)NC(=O)[C@H](CCC(=O)O)NC(=O)[C@H](CC(=O)O)NC(=O)[C@H](CO)NC(=O)[C@H](Cc1ccccc1)NC(C)=O)C(C)C)C(=O)N[C@@]1(C)CCCC=CCCC[C@@](C)(C(=O)N[C@@H](CCCC)C(=O)N[C@@H](C)C(=O)N[C@@H](CC(C)C)C(=O)N[C@@H](CC(=O)O)C(=O)N[C@@H](CCCNC(=N)N)C(=O)N[C@H](C(N)=O)[C@@H](C)CC)NC(=O)[C@H]([C@@H](C)CC)NC(=O)[C@H](C(C)C)NC(=O)[C@H](CC(C)C)NC1=O [SP-45] (Ac-FSDEEVL[Nle][S5]LVI[S5][Nle]ALDRI-NH2; staple 9-13) | – | ++ (≤10 but <25: ++) | > 30 |
